Experiments:
[1] = target: Vascular endothelial growth factor receptor 2 (Homo sapiens, UniProt P35968); test: Inhibition of KDR
[2] = Oral bioavailability in Sprague-Dawley rat at 5 mg/kg; type: ADME, organism-based; details: in vivo
[3] = Volume of distribution at steady state in Sprague-Dawley rat at 2 mg/kg, iv and 5 mg/kg, po; type: ADME, organism-based; details: in vivo, read-out: Vdss
[4] = target: Mitogen-activated protein kinase 14 (Homo sapiens, UniProt Q16539); test: Inhibition of p38alpha
Mitogen-activated protein kinase 14, sequence (Q16539 whole entry): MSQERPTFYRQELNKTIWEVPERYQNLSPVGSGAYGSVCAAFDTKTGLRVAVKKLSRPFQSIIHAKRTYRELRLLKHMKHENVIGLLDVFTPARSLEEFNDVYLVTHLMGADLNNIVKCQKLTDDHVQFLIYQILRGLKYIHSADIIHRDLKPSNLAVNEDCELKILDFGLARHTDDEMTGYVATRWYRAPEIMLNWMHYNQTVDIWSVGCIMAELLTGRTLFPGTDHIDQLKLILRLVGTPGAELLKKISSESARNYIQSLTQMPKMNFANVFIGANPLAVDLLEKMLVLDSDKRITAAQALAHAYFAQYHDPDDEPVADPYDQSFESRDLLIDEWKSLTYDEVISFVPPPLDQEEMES

[5] = Clearance in Sprague-Dawley rat at 2 mg/kg, iv and 5 mg/kg, po; type: ADME, organism-based; details: in vivo
[6] = Elimination half life in Sprague-Dawley rat at 2 mg/kg, iv and 5 mg/kg, po; type: ADME, organism-based; details: in vivo, read-out: beta t1/2 (converted)
[7] = target: Serine/threonine-protein kinase B-raf (Homo sapiens, UniProt P15056, V600E); test: Inhibition of recombinant Braf V600E mutant
Serine/threonine-protein kinase B-raf, sequence (P15056 2-766 V600E limits assumed): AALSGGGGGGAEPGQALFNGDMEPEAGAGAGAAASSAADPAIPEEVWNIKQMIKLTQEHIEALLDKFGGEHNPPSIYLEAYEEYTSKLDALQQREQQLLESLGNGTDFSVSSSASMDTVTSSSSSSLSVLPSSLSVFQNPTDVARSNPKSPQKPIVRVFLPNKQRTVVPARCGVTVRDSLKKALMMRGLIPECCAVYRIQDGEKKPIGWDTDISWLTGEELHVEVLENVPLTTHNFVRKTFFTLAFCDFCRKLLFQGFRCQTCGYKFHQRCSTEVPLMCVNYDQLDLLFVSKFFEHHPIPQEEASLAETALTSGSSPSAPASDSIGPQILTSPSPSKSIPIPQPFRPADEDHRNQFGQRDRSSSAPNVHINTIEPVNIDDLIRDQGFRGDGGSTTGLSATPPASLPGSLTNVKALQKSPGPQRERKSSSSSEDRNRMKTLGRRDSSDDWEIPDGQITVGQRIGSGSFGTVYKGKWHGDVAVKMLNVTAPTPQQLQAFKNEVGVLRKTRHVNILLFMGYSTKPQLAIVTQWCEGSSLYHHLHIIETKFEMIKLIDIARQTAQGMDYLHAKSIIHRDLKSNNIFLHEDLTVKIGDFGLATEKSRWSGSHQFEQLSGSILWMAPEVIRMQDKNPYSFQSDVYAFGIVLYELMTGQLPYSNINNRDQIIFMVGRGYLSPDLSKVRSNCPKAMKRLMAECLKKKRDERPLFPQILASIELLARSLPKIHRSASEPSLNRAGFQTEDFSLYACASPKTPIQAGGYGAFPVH

Angiopoietin-1 receptor = Angiopoietin-1 receptor (Homo sapiens, UniProt Q02763); test: Inhibition of Tie2
Angiopoietin-1 receptor, sequence (Q02763 whole entry): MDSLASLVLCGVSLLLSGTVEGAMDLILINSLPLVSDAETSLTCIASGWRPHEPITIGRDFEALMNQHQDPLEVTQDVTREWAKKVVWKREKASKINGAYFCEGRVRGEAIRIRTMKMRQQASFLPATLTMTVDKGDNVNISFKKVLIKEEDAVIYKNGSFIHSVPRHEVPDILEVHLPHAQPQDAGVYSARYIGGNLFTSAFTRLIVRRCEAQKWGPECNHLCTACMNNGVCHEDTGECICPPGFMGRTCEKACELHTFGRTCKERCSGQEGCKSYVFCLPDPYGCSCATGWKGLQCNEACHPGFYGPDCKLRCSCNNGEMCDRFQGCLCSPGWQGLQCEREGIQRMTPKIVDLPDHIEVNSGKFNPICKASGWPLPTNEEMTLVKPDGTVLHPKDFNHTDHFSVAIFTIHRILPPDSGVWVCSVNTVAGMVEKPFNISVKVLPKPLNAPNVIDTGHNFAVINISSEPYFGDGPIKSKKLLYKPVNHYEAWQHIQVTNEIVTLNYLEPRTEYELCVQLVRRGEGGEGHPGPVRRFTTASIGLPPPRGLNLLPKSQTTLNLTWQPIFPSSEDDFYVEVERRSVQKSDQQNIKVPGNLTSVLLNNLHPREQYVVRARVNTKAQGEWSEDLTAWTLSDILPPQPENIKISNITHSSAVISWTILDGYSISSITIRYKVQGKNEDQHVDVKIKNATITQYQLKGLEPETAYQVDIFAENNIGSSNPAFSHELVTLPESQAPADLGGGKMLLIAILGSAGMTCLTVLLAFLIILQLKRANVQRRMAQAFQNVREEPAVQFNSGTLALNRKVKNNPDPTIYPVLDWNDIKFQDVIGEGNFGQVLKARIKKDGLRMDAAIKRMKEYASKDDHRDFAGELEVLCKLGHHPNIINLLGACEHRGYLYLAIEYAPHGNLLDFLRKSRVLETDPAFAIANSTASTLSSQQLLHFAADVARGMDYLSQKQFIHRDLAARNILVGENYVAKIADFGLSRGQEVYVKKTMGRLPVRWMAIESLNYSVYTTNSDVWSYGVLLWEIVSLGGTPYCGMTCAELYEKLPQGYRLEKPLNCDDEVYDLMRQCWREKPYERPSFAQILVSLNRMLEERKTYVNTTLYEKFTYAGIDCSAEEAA

Mus musculus [8] = test: Inhibition of ERK phosphorylation in human A375 SQ2 cells xenografted CD1 mouse at 20 mg/kg, po bid after 6 hrs; type: functional; details: CD1, A375-SQ2, 6 h
A-375 [9] = test: Antitumor activity against human A375 SQ2 cells xenografted in po dosed CD1 mouse assessed as inhibition of tumor growth administered twice daily for 14 days; type: functional; details: 336 h
[10] = target: Tyrosine-protein kinase Lck (Homo sapiens, UniProt P06239); test: Inhibition of LCK
Tyrosine-protein kinase Lck, sequence (P06239 whole entry): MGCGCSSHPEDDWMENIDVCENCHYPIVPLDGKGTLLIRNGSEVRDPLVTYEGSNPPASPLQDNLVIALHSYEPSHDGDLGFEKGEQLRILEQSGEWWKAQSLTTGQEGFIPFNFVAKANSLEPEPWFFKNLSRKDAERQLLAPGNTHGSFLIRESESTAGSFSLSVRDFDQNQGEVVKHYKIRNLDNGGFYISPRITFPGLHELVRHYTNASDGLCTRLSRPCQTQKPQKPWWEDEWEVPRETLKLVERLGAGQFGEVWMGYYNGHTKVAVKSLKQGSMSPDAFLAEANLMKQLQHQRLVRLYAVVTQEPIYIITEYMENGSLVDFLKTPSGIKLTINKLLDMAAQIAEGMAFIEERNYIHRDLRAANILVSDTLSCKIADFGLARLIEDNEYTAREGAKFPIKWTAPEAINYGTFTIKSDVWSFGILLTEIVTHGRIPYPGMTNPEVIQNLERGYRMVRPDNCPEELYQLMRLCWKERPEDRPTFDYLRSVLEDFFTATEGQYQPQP

Mus musculus [11] = test: Inhibition of ERK phosphorylation in human A375 SQ2 cells xenografted CD1 mouse at 10 mg/kg, po bid after 6 hrs; type: functional; details: CD1, A375-SQ2, 6 h
A-375 [12] = test: Antitumor activity against human A375 SQ2 cells xenografted in CD1 mouse assessed as inhibition of tumor growth at 20 mg/kg, po bid for 14 days; type: functional; parameters: Activity: scale not given: the % may be the effect or the level left; details: for inhibition in vivo at 20 mg/kg: Mus musculus, A375-SQ2, 336 h
[13] = AUC (0 to 24 hrs) in human A375 SQ2 cells xenografted po dosed CD1 mouse administered twice daily for 14 days; type: ADME, organism-based; parameters: time < 24 hr, route oral; details: in vivo
Mus musculus [14] = test: Inhibition of ERK phosphorylation in human A375 SQ2 cells xenografted CD1 mouse at 35 mg/kg, po bid after 6 hrs; type: functional; details: CD1, A375-SQ2, 6 h
A-375 [15] = test: Antitumor activity against human A375 SQ2 cells xenografted in CD1 mouse assessed as inhibition of tumor growth at 10 mg/kg, po bid for 14 days; type: functional; details: A375-SQ2, 336 h
A-375 [16] = test: Antitumor activity against human A375 SQ2 cells xenografted in CD1 mouse assessed as regression of tumor growth at 35 mg/kg, po bid for 14 days; type: functional
A-375 [17] = test: Antitumor activity against human A375 SQ2 cells xenografted in CD1 mouse assessed as inhibition of tumor growth at 17.5 mg/kg, po bid for 14 days; type: functional; details: A375-SQ2, 336 h
Mus musculus [18] = test: Inhibition of ERK phosphorylation in human A375 SQ2 cells xenografted CD1 mouse at 17.5 mg/kg, po bid after 6 hrs; type: functional; details: CD1, A-375, 6 h
Mus musculus [19] = test: Inhibition of ERK phosphorylation in human A375 SQ2 cells xenografted CD1 mouse at 5 mg/kg, po bid after 6 hrs; type: functional; details: CD1, A-375, 6 h
A-375 [20] = test: Antitumor activity against human A375 SQ2 cells xenografted in CD1 mouse assessed as inhibition of tumor growth at 5 mg/kg, po bid for 14 days; type: functional; details: A375-SQ2, 336 h
Mus musculus [21] = test: Inhibition of ERK phosphorylation in human A375 SQ2 cells xenografted CD1 mouse at 30 mg/kg, po bid after 6 hrs; type: functional; details: CD1, A375-SQ2, 6 h
A-375 [22] = test: Antitumor activity against human A375 SQ2 cells xenografted in CD1 mouse assessed as inhibition of tumor growth at 60 mg/kg, po bid for 14 days; type: functional; details: A375-SQ2, 336 h
A-375 [23] = test: Antitumor activity against human A375 SQ2 cells xenografted in CD1 mouse assessed as inhibition of tumor growth at 30 mg/kg, po bid for 14 days; type: functional; details: A-375, 336 h
A-375 [24] = test: Antitumor activity against human A375 SQ2 cells xenografted in CD1 mouse assessed as regression of tumor growth at 100 mg/kg, po bid for 14 days; type: functional
Mus musculus [25] = test: Inhibition of ERK phosphorylation in human A375 SQ2 cells xenografted CD1 mouse at 100 mg/kg, po bid after 6 hrs; type: functional; details: CD1, A375-SQ2, 6 h
Mus musculus [26] = test: Inhibition of ERK phosphorylation in human A375 SQ2 cells xenografted CD1 mouse at 60 mg/kg, po bid after 6 hrs; type: functional; details: CD1, A375-SQ2, 6 h

Vascular endothelial growth factor receptor 2, sequence (P35968 whole entry): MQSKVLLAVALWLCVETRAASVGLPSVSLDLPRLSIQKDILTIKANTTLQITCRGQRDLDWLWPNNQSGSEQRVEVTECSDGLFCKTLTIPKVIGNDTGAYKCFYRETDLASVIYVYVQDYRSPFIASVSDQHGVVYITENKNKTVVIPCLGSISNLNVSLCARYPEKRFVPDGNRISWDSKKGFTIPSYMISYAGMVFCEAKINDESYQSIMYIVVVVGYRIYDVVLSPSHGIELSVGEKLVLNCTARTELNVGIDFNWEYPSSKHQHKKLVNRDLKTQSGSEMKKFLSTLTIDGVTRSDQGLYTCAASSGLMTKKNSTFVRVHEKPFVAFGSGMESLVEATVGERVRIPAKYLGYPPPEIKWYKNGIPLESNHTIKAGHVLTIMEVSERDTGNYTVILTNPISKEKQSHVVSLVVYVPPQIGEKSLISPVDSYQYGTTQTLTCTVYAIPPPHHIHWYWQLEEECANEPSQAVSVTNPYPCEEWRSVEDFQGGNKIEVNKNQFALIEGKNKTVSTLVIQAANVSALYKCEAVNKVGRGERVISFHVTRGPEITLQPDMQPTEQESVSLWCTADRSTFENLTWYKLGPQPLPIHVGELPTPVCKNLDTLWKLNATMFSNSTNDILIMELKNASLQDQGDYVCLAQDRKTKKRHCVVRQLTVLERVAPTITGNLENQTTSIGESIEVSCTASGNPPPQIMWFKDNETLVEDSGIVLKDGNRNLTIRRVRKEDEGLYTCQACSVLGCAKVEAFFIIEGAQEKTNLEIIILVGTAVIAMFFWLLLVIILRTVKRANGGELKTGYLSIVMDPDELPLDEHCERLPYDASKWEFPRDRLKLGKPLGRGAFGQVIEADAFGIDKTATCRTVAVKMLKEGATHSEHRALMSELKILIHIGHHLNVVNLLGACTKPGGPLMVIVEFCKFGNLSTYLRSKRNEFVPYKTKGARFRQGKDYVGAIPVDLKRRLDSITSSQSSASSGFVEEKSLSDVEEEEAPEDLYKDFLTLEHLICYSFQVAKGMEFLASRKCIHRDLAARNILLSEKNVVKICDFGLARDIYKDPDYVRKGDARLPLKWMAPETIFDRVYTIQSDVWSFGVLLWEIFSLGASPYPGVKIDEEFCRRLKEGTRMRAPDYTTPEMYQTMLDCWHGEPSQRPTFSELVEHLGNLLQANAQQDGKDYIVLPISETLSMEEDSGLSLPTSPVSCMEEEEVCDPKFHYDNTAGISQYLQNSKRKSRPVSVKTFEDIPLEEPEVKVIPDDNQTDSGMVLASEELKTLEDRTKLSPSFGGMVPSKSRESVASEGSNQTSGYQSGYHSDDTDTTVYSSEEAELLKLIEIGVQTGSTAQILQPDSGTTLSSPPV

Structure (SMILES)	IC50 [1] [nM]	bioavailability [2] [%]	Vd [3] [L/kg]	IC50 [4] [nM]	clearance [5] [mL/min/kg]	half-life [6] [min]	IC50 [7] [nM]	IC50 (Angiopoietin-1 receptor) [nM]	ED50 (A-375 [9]) [mg/kg]	IC50 [10] [nM]	inhibition in vivo at 35 mg/kg (Mus musculus [14]) [%]	Activity (A-375 [16]) [%]	other results
Cc1ccc(C(=O)Nc2cccc(C(F)(F)F)c2)cc1Nc1ncccc1-c1ccncn1	4.2	16	1.9	12	35	78	0.46	–	–	–	–	–	–
CNc1cc(-c2cccnc2Nc2c(C)ccc3c(Nc4ccc5sc(C)nc5c4)nccc23)ncn1	170	100	0.72	350	5.5	174	–	5.8	11	23	66	24	inhibition in vivo at 20 mg/kg (Mus musculus [8]): 52%; inhibition in vivo at 10 mg/kg (Mus musculus [11]): 30%; inhibition in vivo at 20 mg/kg (A-375 [12]): 85%; AUC at 24 h [13]: 12300 ng·h/mL; inhibition in vivo at 10 mg/kg (A-375 [15]): 42%
Cc1ccc2c(Nc3cccc(C(F)(F)F)c3)nccc2c1Nc1ncccc1-c1ccncn1	760	22	3.7	> 1600	20	270	17	47	–	81	–	–	–
CNc1cc(-c2cccnc2Nc2c(C)ccc3c(Nc4ccc(C#N)cc4)nccc23)ncn1	> 1000	100	0.37	> 1600	1.83	162	39	400	11.5	150	78	17	inhibition in vivo at 17.5 mg/kg (A-375 [17]): 80%; inhibition in vivo at 10 mg/kg (Mus musculus [11]): 21%; inhibition in vivo at 17.5 mg/kg (Mus musculus [18]): 63%; AUC at 24 h [13]: 52800 ng·h/mL; inhibition in vivo at 10 mg/kg (A-375 [15]): 50%
CNc1cc(-c2cccnc2Nc2c(C)ccc3c(Nc4ccc(Cl)cc4)nccc23)ncn1	300	100	1.7	> 1600	4.83	282	56	24	–	12	–	–	–
CNc1ncc2cc(-c3c(C)ccc4c(Nc5ccc6c(c5)NC(=O)C6(C)C)nccc34)ccc2n1	240	55	4.3	51	10.8	288	21	> 1000	4.7	78	85	75	inhibition in vivo at 20 mg/kg (Mus musculus [8]): 82%; inhibition in vivo at 10 mg/kg (Mus musculus [11]): 60%; Activity (A-375 [12]): 55%; inhibition in vivo at 10 mg/kg (A-375 [15]): 85%
Cc1ccc2c(Nc3ccc(Cl)cc3)nccc2c1Nc1ncccc1-c1ccncn1	> 25000	83	2.2	> 1600	11.2	210	3.4	520	–	280	–	–	–
C#Cc1cccc(Nc2nccc3c(Nc4ncccc4-c4cc(NC)ncn4)c(C)ccc23)c1	420	76	2.2	450	12.2	168	–	8.1	13	210	81	54	inhibition in vivo at 5 mg/kg (Mus musculus [19]): 5%; inhibition in vivo at 20 mg/kg (Mus musculus [8]): 40%; inhibition in vivo at 20 mg/kg (A-375 [12]): 78%; AUC at 24 h [13]: 9410 ng·h/mL; inhibition in vivo at 5 mg/kg (A-375 [20]): 18%
CNc1ncc2cc(-c3cc(C(=O)Nc4cccc(C(F)(F)F)c4)ccc3C)ccc2n1	–	–	3.6	3.5	26.7	138	1.7	1.8	–	0.27	–	–	–
CNc1ncc2cc(-c3c(C)ccc4c(Nc5cc(C(C)(C)C)nn5C)nccc34)ccc2n1	230	24	5.5	110	30	234	–	200	27	21	–	–	inhibition in vivo at 30 mg/kg (Mus musculus [21]): 50%; inhibition in vivo at 60 mg/kg (A-375 [22]): 90%; inhibition in vivo at 30 mg/kg (A-375 [23]): 60%; Activity (A-375 [24]): 45%; inhibition in vivo at 100 mg/kg (Mus musculus [25]): 78%; inhibition in vivo at 60 mg/kg (Mus musculus [26]): 67%
CNc1ncc2cc(-c3c(C)ccc4c(Nc5ccc(Cl)cc5)nccc34)ccc2n1	> 25000	–	–	> 1600	–	–	5.4	> 1000	–	110	–	–	–
